Experimental data published in patent US9695155B2, “Herbicidal substituted pyrimidinyloxy benzene compounds” (E. I. DU PONT DE NEMOURS AND COMPANY, priority 2013, dated 2017).

Key:
rice = assay: Test B flooded paddy test; format: in vivo, Oryza sativa; conditions: Oryza sativa; Flood, 250 g ai/ha; 0 to 100 scale where 0 is no effect and 100 is complete control; read-out: Plant response rating, Rice
Outline: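 Seedlings are raised to two leaves, flooded to a depth of 3 cm and dosed by adding the compound to the floodwater. Water level is kept constant, and plants are scored visually versus controls 13–15 days later (0 = no effect, 100 = complete control).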

kochia = assay: Test C postemergence; format: in vivo, Kochia scoparia; conditions: Bassia scoparia, post-emergence
Outline: (§1)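 Seeds are planted in blended loam soil and sand and treated preemergence, while seedlings in a peat moss/vermiculite medium receive postemergence sprays at 2 to 18 cm height. All plants stay in the greenhouse for 13 to 15 days before visual comparison with controls on a 0–100 scale.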

pigweed = assay: Test C postemergence; format: in vivo, Amaranthus retroflexus
Outline: as §1

Italian ryegrass = assay: Test C postemergence; format: in vivo, Lolium multiflorum
Outline: as §1

corn = assay: Test A postemergence; format: in vivo, Zea mays; conditions: Zea mays, post-emergence, 240 h
Outline: (§2)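 Visual injury scored 0–100 (100 = complete control) against untreated controls about 10 days after treatment in a greenhouse. Test chemicals, formulated with surfactant in non-phytotoxic solvent, were sprayed on soil preemergence or on 2-10 cm, one- to two-leaf plants postemergence.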

morningglory [1] = assay: Test A preemergence; format: in vivo, Ipomoea spp.
Outline: as §2

wheat = assay: Test A preemergence; format: in vivo, Triticum aestivum
Outline: as §2

giant foxtail [2] = assay: Test A preemergence; format: in vivo, Setaria faberii
Outline: as §2

large (Lg) crabgrass [3] = assay: Test A postemergence; format: in vivo, Digitaria sanguinalis; conditions: Digitaria sanguinalis, post-emergence, 240 h, read-out: Plant response rating, Crabgrass, Large
Outline: as §2

giant foxtail [4] = assay: Test A postemergence; format: in vivo, Setaria faberii; conditions: Setaria faberi, post-emergence, 240 h, read-out: Plant response rating, Foxtail, Giant
Outline: as §2

velvetleaf = assay: Test A postemergence; format: in vivo, Abutilon theophrasti; conditions: Abutilon theophrasti, post-emergence, 240 h, read-out: Plant response rating, Velvetleaf
Outline: as §2

wild oat = assay: Test C postemergence; format: in vivo, Avena fatua; conditions: Avena fatua, post-emergence
Outline: as §1

large (Lg) crabgrass [5] = assay: Test A preemergence; format: in vivo, Digitaria sanguinalis
Outline: as §2

yellow nutsedge = assay: Test C postemergence; format: in vivo, Cyperus esculentus
Outline: as §1

morningglory [6] = assay: Test C postemergence; format: in vivo, Ipomoea coccinea
Outline: as §1

[7] = 31 g ai/ha, postemergence, visual rating, scale 0 to 100 (0 no effect, 100 complete control), 13 to 15 days
[8] = 125 g ai/ha, 0 to 100 scale, 0 no effect, 100 complete control
[9] = 500 g ai/ha, 0 to 100 scale where 0 is no effect and 100 is complete control

With `N#Cc1cccc(Oc2ncc(Cl)cn2)c1-n1cc(OCC(F)(F)F)cn1` [Compound 274, 3-[(5-chloro-2-pyrimidinyl)oxy]-2-[4-(2,2,2-trifluoroethoxy)-1H-pyrazol-1-yl]benzonitrile] the plant injury at 250 g/ha (rice) was 60%, the pest or weed control at 16 g/ha (kochia; 16 g ai/ha, postemergence, 0 is no effect, 100 is complete control, read-out: Plant response rating (0 to 100), Kochia) was 85% and the pest or weed control at 31 g/ha (kochia; 31 g ai/ha, postemergence, visual rating, scale 0 to 100 (0 no effect, 100 complete control), 13 to 15 days, read-out: Kochia plant response rating) was 90%. For the same molecule, the pest or weed control at 125 g/ha (kochia; 125 g ai/ha, postemergence, visual rating, scale 0 to 100 (0 no effect, 100 complete control), read-out: Plant response rating, Kochia) was 100%, the pest or weed control at 62 g/ha (kochia; Postemergence, 62 g ai/ha, scale 0 to 100 (0 no effect, 100 complete control), 13 to 15 days, read-out: Plant response rating, Kochia) was 100% and the “Pigweed plant response rating” value (pigweed; [7]) was 85. For the same molecule, the pest or weed control at 16 g/ha (pigweed; Amaranthus retroflexus, post-emergence, 16 g ai/ha, postemergence, 0 is no effect, 100 is complete control, read-out: Plant response rating (0 to 100), Pigweed) was 95%, the pest or weed control at 125 g/ha (pigweed; Amaranthus retroflexus, post-emergence, 125 g ai/ha, postemergence, visual rating, scale 0 to 100 (0 no effect, 100 complete control), read-out: Plant response rating, Pigweed) was 98% and the pest or weed control at 62 g/ha (pigweed; Amaranthus retroflexus, post-emergence, Postemergence, 62 g ai/ha, scale 0 to 100 (0 no effect, 100 complete control), 13 to 15 days, read-out: Plant response rating, Pigweed) was 90%. The “Ryegrass, Italian plant response rating” value (Italian ryegrass; [7]) was 5, the pest or weed control at 16 g/ha (Italian ryegrass; Lolium multiflorum, post-emergence, 16 g ai/ha, postemergence, 0 is no effect, 100 is complete control, read-out: Plant response rating (0 to 100), Ryegrass, Italian) was 5% and the pest or weed control at 125 g/ha (Italian ryegrass; Lolium multiflorum, post-emergence, 125 g ai/ha, postemergence, visual rating, scale 0 to 100 (0 no effect, 100 complete control), read-out: Plant response rating, Ryegrass, Italian) was 35%. For the same molecule, the pest or weed control at 62 g/ha (Italian ryegrass; Lolium multiflorum, post-emergence, Postemergence, 62 g ai/ha, scale 0 to 100 (0 no effect, 100 complete control), 13 to 15 days, read-out: Plant response rating, Ryegrass, Italian) was 30%, the Corn plant response rating (crop injury, 0 = no effect, 100 = complete kill) at 125 g/ha (corn; [8]) was 80% and the Corn plant response rating (crop injury, 0 = no effect, 100 = complete kill) at 500 g/ha (corn; [9]) was 90%. The “Morningglory plant response rating (0 to 100 scale)” value (morningglory [1]; 125 g ai/ha) was 100, the pest or weed control at 500 g/ha (morningglory [1]; Ipomoea, pre-emergence, 240 h, 500 g ai/ha, 0 to 100 scale where 0 is no effect and 100 is complete control, read-out: Morningglory plant response rating) was 100% and the “Wheat plant response rating (0 to 100 scale)” value (wheat; 125 g ai/ha) was 40. The plant injury at 500 g/ha (wheat; Triticum aestivum, pre-emergence, 240 h, 500 g ai/ha, 0 to 100 scale where 0 is no effect and 100 is complete control, read-out: Wheat plant response rating) was 80%, the “Foxtail, Giant plant response rating (0 to 100 scale)” value (giant foxtail [2]; 125 g ai/ha) was 100 and the pest or weed control at 500 g/ha (giant foxtail [2]; Setaria faberi, pre-emergence, 240 h, 500 g ai/ha, 0 to 100 scale where 0 is no effect and 100 is complete control, read-out: Foxtail, Giant plant response rating) was 100%. The pest or weed control at 125 g/ha (large (Lg) crabgrass [3]; [8]) was 90%, the pest or weed control at 500 g/ha (large (Lg) crabgrass [3]; [9]) was 90% and the pest or weed control at 125 g/ha (giant foxtail [4]; [8]) was 90%. The pest or weed control at 500 g/ha (giant foxtail [4]; [9]) was 90%, the pest or weed control at 125 g/ha (velvetleaf; [8]) was 100% and the pest or weed control at 500 g/ha (velvetleaf; [9]) was 100%. The pest or weed control at 16 g/ha (wild oat; 16 g ai/ha, postemergence, 0 is no effect, 100 is complete control, read-out: Plant response rating (0 to 100), Oat, Wild) was 30%, the pest or weed control at 125 g/ha (wild oat; 125 g ai/ha, postemergence, visual rating, scale 0 to 100 (0 no effect, 100 complete control), read-out: Plant response rating, Oat, Wild) was 30% and the pest or weed control at 62 g/ha (wild oat; Postemergence, 62 g ai/ha, scale 0 to 100 (0 no effect, 100 complete control), 13 to 15 days, read-out: Plant response rating, Oat, Wild) was 35%. The “Crabgrass, Large plant response rating (0 to 100 scale)” value (large (Lg) crabgrass [5]; 125 g ai/ha) was 100, the pest or weed control at 500 g/ha (large (Lg) crabgrass [5]; Digitaria sanguinalis, pre-emergence, 240 h, 500 g ai/ha, 0 to 100 scale where 0 is no effect and 100 is complete control, read-out: Crabgrass, Large plant response rating) was 100% and the “Nutsedge, Yellow plant response rating” value (yellow nutsedge; [7]) was 5. The pest or weed control at 16 g/ha (yellow nutsedge; Cyperus, post-emergence, 16 g ai/ha, postemergence, 0 is no effect, 100 is complete control, read-out: Plant response rating (0 to 100), Nutsedge, Yellow) was 10%, the pest or weed control at 125 g/ha (yellow nutsedge; Cyperus, post-emergence, 125 g ai/ha, postemergence, visual rating, scale 0 to 100 (0 no effect, 100 complete control), read-out: Plant response rating, Nutsedge, Yellow) was 10% and the pest or weed control at 62 g/ha (yellow nutsedge; Cyperus, post-emergence, Postemergence, 62 g ai/ha, scale 0 to 100 (0 no effect, 100 complete control), 13 to 15 days, read-out: Plant response rating, Nutsedge, Yellow) was 20%. For the same molecule, the “Morningglory plant response rating” value (morningglory [6]; [7]) was 85, the pest or weed control at 16 g/ha (morningglory [6]; Ipomoea, post-emergence, 16 g ai/ha, postemergence, 0 is no effect, 100 is complete control, read-out: Plant response rating (0 to 100), Morningglory) was 85% and the pest or weed control at 125 g/ha (morningglory [6]; Ipomoea, post-emergence, 125 g ai/ha, postemergence, visual rating, scale 0 to 100 (0 no effect, 100 complete control), read-out: Plant response rating, Morningglory) was 95%. The pest or weed control at 62 g/ha (morningglory [6]; Ipomoea, post-emergence, Postemergence, 62 g ai/ha, scale 0 to 100 (0 no effect, 100 complete control), 13 to 15 days, read-out: Plant response rating, Morningglory) was 95%.
